Test results from patent publication US12576097B2, “Anti-tumor effective component of Hedyotis diffusa, preparation method therefor and use thereof” (Guangdong New Ear Life Technology Co., Ltd., priority 2020, dated 2026).
Entries after “also recorded” stand apart in the source; their conditions may differ. Marks after values point to notes of the source that are not given here.

Assays:
[1] = test system: human liver cancer Hep-G2 cells; test: Inhibition rate on human liver cancer Hep-G2 cells (CCK-8); format: cell-based; settings: 24 h; for inhibition rate: 3 mg/mL drug solutions
Protocol: A cryopreservation tube containing liver cancer Hep-G2 cells was taken out from a liquid nitrogen tank, quickly placed in a water bath at 38-39° C., and continuously shaken to be fully thawed within 1 min. The cryopreservation tube was centrifuged at 800 r/min for 9 min, and sprayed with 75% alcohol on the outside thereof, and then put into a ultra-clean table. The resulting supernatant was sucked and discarded. 1 ml of DMEM complete medium was added, and a mixture of the cells and the DMEM complete medium was blown evenly, and then the cells were transferred to a 25 ml culture dish. 6-8 ml of DMEM complete medium was added, and a mixture of the cells and the DMEM complete medium was gently blown evenly, and put into a constant temperature incubator at 37° C. with 5% CO2.
The old medium in the item 2.1 was sucked out. 2 ml of PBS buffer solution was added, and the cells were washed by gently shaking the culture flask. The PBS buffer solution was sucked out to remove the loose, dead and senescent cells and their metabolic wastes, and the cells were washed for 2-3 times. 2 ml of trypsin was added, and the culture dish was gently shaken for 30 s. After the trypsin was sucked out, the culture dish was put into the incubator for full digestion for 3 min, and 2 ml of fresh DMEM complete culture was added. The cells were gently blown and dispersed into individual cells under a microscope, and then 6-8 ml of fresh DMEM complete medium was added and the cells were incubated in a constant temperature incubator.
2 mL trypsin was added into the cells cultured in the item 2.2 in the logarithmic growth phase and the cells were digested for 30 s. After the trypsin was sucked out, the culture dish was placed into the incubator for full digestion for 3 min, and 2 mL of fresh medium was added. The cells were gently blown to disperse the cells into individual cells under the microscope. 10 μL of cell suspension and 10 μL of 0.4% Trypan blue staining solution were mixed well to fully stain the cells. 10 μL of the stained cell suspension was added to a cell counting plate, and the number of cells was counted by a fully automatic cell counter. The cell suspension was diluted to 2×10^5 cells/mL with a DMEM complete medium. 100 μL of cell suspension was sucked with a multichannel pipette and seeded into a 96-well plate and incubated in a constant temperature incubator at 37° C. with 5% CO2 for 24 h.
30 mL of DMEM complete medium was accurately measured, 30 μL of DMSO was added, and uniform mixing was conducted to prepare 0.1% DMSO medium. […] The kaempferol solution and the methyl ester solution having the above concentrations were uniformly mixed to prepare drug solutions having the desired ratio based on the mass ratio of kaempferol to methyl ester being 1:1, 1:2, 1:3, 1:4, 1:5, 5:1, 4:1, 3:1 and 2:1, 400 μL of each drug solution. 1 mg/mL of 5-fluorouracil solution was diluted to a concentration of 800, 600, 400, 200, 100, 50, 25 μg/mL, respectively, 400 μL of each drug solution.
The old medium in the 96-well plate in the item 2.3 was sucked out, and 100 μL of PBS buffer solution was added to each well to remove the loose, dead and senescent cells and their metabolic wastes. After that, the PBS buffer solution was sucked out. 100 μL of the prepared drug solution was added to each well, 3 wells in parallel. A negative control was set up, in which an equal volume of DMEM complete medium containing 0.1 vol % DMSO was added to each well, 3 wells in parallel. A blank control was a DMEM complete medium containing 0.1 vol % DMSO free of cells, 3 wells in parallel. The cells were incubated for 24 h in a constant temperature incubator at 37° C. with 5% CO2.
The DMEM complete medium containing 0.1 vol % DMSO in the drug solutions and negative control in the 96-well plate in the item 2.5 were sucked out. […]

[2] = test system: Solid tumor cell line S180; test: In-vivo anti-tumor experiment after S180 tumor inoculation in mice; parameters: species or system ICR mice; settings: 9 days; for relative tumor weight mean ± SD: S180 tumor-bearing ICR mice; for inhibition rate: vs model group; for best dose for tumor inhibition: dose with the highest inhibition rate, gavage
Protocol: Solid tumor cell line S180 cryopreservation tube were taken out from a liquid nitrogen tank and quickly placed into water at 37° C. with occasional shaking. After cryopreserved cell mother liquor was thawed, the lid edge of the cryopreservation tube was wiped with an alcohol swab. The thawed cell liquor was injected intraperitoneally into the peritoneal cavities of ICR mice by a syringe. The mice were kept at room temperature of 25±5° C., humidity of 60±10%, natural light, and free to ingest food and water. After about one week, ascites in the peritoneal cavities of the ICR mice were sucked by a syringe and injected into the peritoneal cavities of new ICR mice at a dose of 0.5 ml per mouse for passage for standby application.
ICR class II mice, weighing about 18-22 g. Feeding conditions: room temperature of 25±5° C., humidity of 60±10%, natural light, free intake of water, and all mice were kept in the feeding environment for adaptive feeding for four days, fasted for 12 h before the experiment, free intake of water.
(§1) The experimental instruments were placed in a clean table and sterilized for about 30 min by turning on a UV lamp. The mice that were injected with ascites (about one week) were sacrificed by cervical dislocation, and abdomens of the mice were wiped with an alcohol swab. A 20 ml syringe was selected to suck the ascites (milky white is preferred) from the mice. The sucked ascites were placed in a sterile vial, and the vial was placed in a small box with ice. A certain amount of ascites was sucked onto a counting plate and placed under a microscope for counting, and the number of the cells was 10^7 as a base for tumor inoculation (1:2) and passage (1:5).
(§2) The adaptively fed ICR class II male mice were taken, and wiped with an alcohol swab on the armpit areas of the right forelimbs. The axillary cavities of the right forelimbs of the mice were inoculated with diluted mice ascite cell (10^7 cells) suspension at 0.2 ml per mouse. After tumor inoculation, the mice were fed and watered freely. One hour later, the drug was administered by gavage.
(§3) 168 ICR class II male mice with a weight of 18-22 g were used. The mice were kept under the conditions of the item 2.2 for adaptive feeding for four days before the experiment. After four days, the mice were weighed and their autonomy was measured. […] Each mouse was inoculated with S180 tumor according to the method in the item 2.3, and the drug was administered by gavage after inoculation.
(§4) A appropriate amount of test samples were weighed precisely, and prepared into test sample solutions having the desired concentrations by using a 5 vol % ethanol aqueous solution as a solvent, i.e.: the effective parts of 5 mg/kg, 10 mg/kg and 20 mg/kg correspond to the test sample solutions of the groups of the effective part 5, effective part 10, and effective part 20, respectively; E-6-O-(p-coumaroyl)scandoside methyl ester of 2.5 mg/kg, 5 mg/kg, 10 mg/kg, and 20 mg/kg correspond to the test sample solutions of the groups of methyl ester 2.5, methyl ester 5, methyl ester 10 and methyl ester 20, respectively; kaempferol-3-O-[2-O-(6-O-E-feruloyl)-β-D-glucopyranosyl]-β-D-galactopyranose of 2.5 mg/kg, 5 mg/kg, 10 mg/kg and 20 mg/kg correspond to the test sample solutions of the groups of kaempferol 2.5, kaempferol 5, kaempferol 10 and kaempferol 20, respectively. […] Each mouse was administered by gavage at a dose of 0.2 ml/10 g. During the administration period, the mice were fed at 3 g/mouse and ingested water and food freely. All mice were continuously administered for 9 days, and sacrificed by decapitation on day 10. Blood, tumor, liver, spleen, and thymus of mice were collected. The blood collected was placed in a low temperature environment and sent out for blood check. The weight of the tumor, liver, spleen, and thymus and the size of the tumor were recorded.

[3] = test system: Solid tumor cell line S180; test: In-vivo anti-tumor experiment of E-6-O-(p-coumaroyl)scandoside methyl ester and its metabolite p-coumaric acid (S180 tumor); parameters: species or system ICR mice; settings: 10 mg/kg by gavage, 9 days; for relative tumor weight mean ± SD: S180 tumor-bearing ICR mice; for inhibition rate: vs model group
Protocol: as §1, §2
30 ICR class II male mice with a weight of 18-22 g were used. The mice were adaptively fed for four days under the conditions of the item 2.2 before the experiment. After four days, the mice were weighed and their autonomy was measured. The ICR mice were randomly divided into three groups, namely: a model group, methyl ester 10, p-coumaric acid 10, 10 mice in each group. Each mouse was inoculated with S180 tumor according to the method of the item 2.3, and the drug was administered by gavage after inoculation.
The appropriate amount of test samples were weighed precisely and prepared into test sample solutions having the desired concentrations by using a 5 vol % ethanol aqueous solution as a solvent, i.e.: E-6-O-(p-coumaroyl)scandoside methyl ester of 10 mg/kg; p-coumaric acid of 10 mg/kg. […] The blank group was given a solvent, the positive drug control group was given the cyclophosphamide solution, and the other groups were given the corresponding drugs and doses. Each mouse was administered by gavage at a dose of 0.2 ml/10 g. The mice were fed at 3 g/mouse and ingested water and food freely during the administration period. All mice were continuously administered for 9 days and sacrificed by decapitation on day 10. Blood, tumor, liver, spleen and thymus of the mice were collected. The blood obtained was placed in a low-temperature environment and sent out for blood check. The weight of the tumor, liver, spleen and thymus and the size of the tumor were recorded.
(§5) The recorded results were expressed as mean plus or minus standard deviation (X±SD), and the data were analyzed by using statistical software SPSS 11.5 software.

[4] = Spleen and thymus weight and blood count of S180 tumor-bearing mice; format: in vivo, ICR mice; settings: for relative spleen weight compared with model group: FIG. 5; for relative thymus weight compared with model group: FIG. 6; for number of leukocytes compared with model group: FIG. 7; for percentage of lymphocytes compared with model group: FIG. 8
Protocol: as §3, §4, §5

Row | Compound | relative tumor weight mean ± SD ([2]; 2.5 mg/kg by gavage) | inhibition rate ([2]; 2.5 mg/kg by gavage) | relative tumor weight mean ± SD ([2]; 5 mg/kg by gavage) | inhibition rate ([2]; 5 mg/kg by gavage) | relative tumor weight mean ± SD ([2]; 10 mg/kg by gavage) | inhibition rate ([2]; 10 mg/kg by gavage) | relative tumor weight mean ± SD ([2]; 20 mg/kg by gavage) | inhibition rate ([2]; 20 mg/kg by gavage) | best dose for tumor inhibition [2] | relative tumor weight mean ± SD [3] | inhibition rate [3] | relative spleen weight compared with model group ([4]; 5 mg/kg) | relative thymus weight compared with model group ([4]; 5 mg/kg) | number of leukocytes compared with model group ([4]; 5 mg/kg) | percentage of lymphocytes compared with model group ([4]; 5 mg/kg) | inhibition rate ([1]; 1st measurement) | inhibition rate ([1]; 2nd measurement) | inhibition rate ([1]; 3rd measurement) | other results
1 | O=c1[nH]cc(F)c(=O)[nH]1 [5-Fluorouracil, 5-fluorouracil] |  |  |  |  |  |  |  |  |  |  |  |  |  |  |  |  |  |  | inhibition at 25 µg/mL ([1]; Homo sapiens, HepG2, 25 μg/mL): 7.34%; inhibition at 50 µg/mL ([1]; Homo sapiens, HepG2, 50 μg/mL): 11.3%; inhibition at 100 µg/mL ([1]; Homo sapiens, HepG2, 100 μg/mL): 13.9%; inhibition at 200 µg/mL ([1]; Homo sapiens, HepG2, 200 μg/mL): 17.8%; inhibition at 400 µg/mL ([1]; Homo sapiens, HepG2, 400 μg/mL): 39.5%; inhibition at 600 µg/mL ([1]; Homo sapiens, HepG2, 600 μg/mL): 56.1%; inhibition at 800 µg/mL ([1]; Homo sapiens, HepG2, 800 μg/mL): 61.5%; inhibition at 1000 µg/mL ([1]; Homo sapiens, HepG2, 1000 μg/mL): 68%
2 | COC(=O)C1=COC(O[C@@H]2O[C@H](CO)[C@@H](O)[C@H](O)[C@H]2O)C2C(CO)=CC(OC(=O)/C=C/c3ccc(O)cc3)C12 (stereo partly drawn) [Methyl ester, E-6-O-(p-coumaroyl)scandoside methyl ester] | 6.49 ± 1.56* 10^−2 | 21.92% | 4.24 ± 2.24* 10^−2 | 48.97% | 5.81 ± 2.19* 10^−2 | 30.17% | 5.98 ± 1.19* 10^−2 | 28.06% | 5 mg/kg | 4.65 ± 3.29* 10^−2 | 36.59% | increase | increase | significant increase; also recorded: highest | increased most significantly | 7.558% | 5.565% | 7.273% | inhibition rate ([2]; 5 mg/kg by gavage, listed as E-6-O-(p-coumaroyl)scandoside methyl ester): 48.97%; number of erythrocytes compared among groups ([4]; 5 mg/kg): highest
3 | O=P1(N(CCCl)CCCl)NCCCO1 (stereo not drawn) [Positive control, Cyclophosphamide, reference compound] |  |  |  |  |  |  | 3.56 ± 0.77* 10^−2 | 57.19% |  |  |  |  |  |  |  |  |  |  | number of erythrocytes compared with model group ([4]; 20 mg/kg): lower; relative spleen weight compared with model group ([4]; 20 mg/kg): decrease; also recorded: lower; relative thymus weight compared with model group ([4]; 20 mg/kg): increase; number of leukocytes compared with model group ([4]; 20 mg/kg): significant decrease; also recorded: lower; percentage of lymphocytes compared with model group ([4]; 20 mg/kg): increase
4 | O=C(O)/C=C/c1ccc(O)cc1 [p-coumaric acid, reference compound] |  |  |  |  |  |  |  |  |  | 6.07 ± 2.91* 10^−2 | 17.20% |  |  |  |  |  |  |  | 
5 | kaempferol-3-O-[2-O-(6-O-E-feruloyl)-β-D-glucopyranosyl]-β-D-galactopyranose | 7.01 ± 1.56 10^−2 | 15.76% | 4.49 ± 1.95 10^−2 | 45.96% | 6.04 ± 2.78 10^−2 | 27.36% | 5.59 ± 1.96 10^−2 | 32.75% | 5 mg/kg |  |  | increase | increase | significant decrease | increase | 18.7% | 12.07% | 19.28% | inhibition rate ([2]; 5 mg/kg by gavage, listed as kaempferol-3-O-[2-O-(6-O-E-feruloyl)-β-D-glucopyranosyl]-β-D-galactopyranose): 45.96%
